In patent publication US20130029962A1, “Substituted Heteroaromatic Pyrazole-Containing Carboxamide and Urea Compounds as Vanilloid Receptor Ligands” (Gruenenthal GmbH, priority 2011, published 2013):

Biological target: T1, vanilloid receptor 1 (VR1/TRPV1 receptor) (Homo sapiens, UniProt Q8NER1)
T1 construct: expressed in transfected cells; host or cells: CHO K1
Experiment: Functional testing on the vanilloid receptor 1 (VR1/TRPV1): FLIPR Ca2+ influx assay, displacement of capsaicin
Assay type: cell-based, human being
Parameters: key to mode of action at VR1/TRPV1 (AG, pAG, NE), Cap: AG=agonist; NE=no effect; pAG=partial agonist
Details: for inhibition at 5 µM: 5 μM compound, read-out: inhibition (as a percentage) at the concentration after @, Cap; for inhibition at 5 µM / mode of action at VR1/TRPV1 (AG, pAG, NE), Cap: capsaicin (Cap), human being; for Ki: capsaicin (Cap) as stimulus, Ki from IC50 by Cheng-Prusoff, read-out: (f) Ki (human being) [nM] Cap
Experimental: Furthermore, preference may be given to compounds according to the invention that cause a 50 percent displacement of capsaicin, which is present at a concentration of 100 nM, in a FLIPR assay with CHO K1 cells which were transfected with the human VR1 gene at a concentration of less than 2,000 nM, preferably less than 1,000 nM, particularly preferably less than 300 nM, most particularly preferably less than 100 nM, even more preferably less than 75 nM, additionally preferably less than 50 nM, most preferably less than 10 nM.
In the process, the Ca^2+ influx is quantified in the FLIPR assay with the aid of a Ca^2+-sensitive dye (type Fluo-4, Molecular Probes Europe BV, Leiden, the Netherlands) in a fluorescent imaging plate reader (FLIPR, Molecular Devices, Sunnyvale, USA), as described hereinafter. […]
The number of cells in the suspension is set to 3×10^5 per mL and 150 μL of this suspension are in each case introduced into a recess in the cell culture plates coated as described hereinbefore. In the incubator the plates are left for two to three days at 37° C., 5% by volume of CO2 and 95% relative humidity. Subsequently, the cells are loaded with 2 μM of Fluo-4 and 0.01% by volume of Pluronic F127 (Molecular Probes Europe BV, Leiden, the Netherlands) in HBSS buffer (Hank's buffered saline solution, Gibco Invitrogen GmbH, Karlsruhe, Germany) for 30 min at 37° C., washed 3 times with HBSS buffer and after further incubation for 15 minutes at room temperature used for Ca^2+ measurement in a FLIPR assay. The Ca^2+-dependent fluorescence is in this case measured before and after the addition of substances (λex=488 nm, λem=540 nm). Quantification is carried out by measuring the highest fluorescence intensity (FC, fluorescence counts) over time.
The FLIPR protocol consists of 2 substance additions. First the compounds to be tested (10 μM) are pipetted onto the cells and the Ca^2+ influx is compared with the control (capsaicin 10 μM). This provides the result in % activation based on the Ca^2+ signal after the addition of 10 μM of capsaicin (CP). After 5 minutes' incubation, 100 nM of capsaicin are applied and the Ca^2+ influx is also determined. Desensitising agonists and antagonists lead to suppression of the Ca^2+ influx. The % inhibition is calculated compared to the maximum achievable inhibition with 10 μM of capsazepine. Triple analyses (n=3) are carried out and repeated in at least 3 independent experiments (N=4).
Starting from the percentage displacement caused by different concentrations of the compounds to be tested of general formula I, IC50 inhibitory concentrations which cause a 50-percent displacement of capsaicin were calculated. Ki values for the test substances were obtained by conversion by means of the Cheng-Prusoff equation (Cheng, Prusoff; Biochem. Pharmacol. 22, 3099-3108, 1973).
The affinity of the compounds according to the invention for the vanilloid receptor 1 (VR1/TRPV1 receptor) was determined as described above (pharmacological method I).

T1 sequence (Q8NER1 whole entry): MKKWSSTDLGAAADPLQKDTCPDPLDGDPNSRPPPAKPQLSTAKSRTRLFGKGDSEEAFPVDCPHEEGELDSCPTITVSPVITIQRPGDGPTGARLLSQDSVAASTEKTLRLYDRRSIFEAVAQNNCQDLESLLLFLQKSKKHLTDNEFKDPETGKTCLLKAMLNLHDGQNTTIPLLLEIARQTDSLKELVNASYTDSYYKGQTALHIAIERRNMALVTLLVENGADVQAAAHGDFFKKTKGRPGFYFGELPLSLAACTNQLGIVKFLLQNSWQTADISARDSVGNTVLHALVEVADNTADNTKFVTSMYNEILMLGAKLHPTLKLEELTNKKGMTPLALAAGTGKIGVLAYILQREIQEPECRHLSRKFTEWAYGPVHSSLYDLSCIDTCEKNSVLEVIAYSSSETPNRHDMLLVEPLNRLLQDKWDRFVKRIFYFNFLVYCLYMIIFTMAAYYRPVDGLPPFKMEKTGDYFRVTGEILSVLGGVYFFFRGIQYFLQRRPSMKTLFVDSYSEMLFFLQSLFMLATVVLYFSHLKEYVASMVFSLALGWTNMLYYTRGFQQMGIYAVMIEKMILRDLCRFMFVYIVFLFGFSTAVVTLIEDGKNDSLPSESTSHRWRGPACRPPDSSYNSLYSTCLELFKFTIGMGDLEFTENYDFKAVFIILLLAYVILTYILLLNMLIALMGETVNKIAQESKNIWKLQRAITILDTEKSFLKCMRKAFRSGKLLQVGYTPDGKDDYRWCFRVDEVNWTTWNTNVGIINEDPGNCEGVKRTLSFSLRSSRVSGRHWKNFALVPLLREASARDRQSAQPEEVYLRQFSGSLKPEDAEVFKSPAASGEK

inhibition at 5 µM | mode of action at VR1/TRPV1 (AG, pAG, NE), Cap | Ki | SMILES
31% |  |  | O=C(Cc1ccccn1)NCc1cc(C(F)(F)F)nn1-c1cccc(Cl)c1 [Example 1, N-((1-(3-chlorophenyl)-3-(trifluoromethyl)-1H-pyrazol-5-yl)methyl)-2-(pyridin-2-yl)acetamide]
89% | AG |  | CC(C(=O)NCc1cc(C(C)(C)C)nn1-c1cccc(Cl)c1)c1ccccn1 (stereo not drawn) [Example 2, N-((3-tert-butyl-1-(3-chlorophenyl)-1H-pyrazol-5-yl)methyl)-2-(pyridin-2-yl)propanamide]
35% |  |  | CC(C(=O)NCc1cc(C(F)(F)F)nn1-c1cccc(Cl)c1)c1ccccn1 (stereo not drawn) [Example 3, N-((1-(3-chlorophenyl)-3-(trifluoromethyl)-1H-pyrazol-5-yl)methyl)-2-(pyridin-2-yl)propanamide]
 |  | 47 nM | CC(C)(C)c1cc(CNC(=O)Nc2ccccn2)n(-c2cccc(Cl)c2)n1 [Example 4, 1-((3-tert-butyl-1-(3-chlorophenyl)-1H-pyrazol-5-yl)methyl)-3-(pyridin-2-yl)urea]
29% |  |  | O=C(NCc1cc(C(F)(F)F)nn1-c1cccc(Cl)c1)Nc1ccccn1 [Example 5, 1-((1-(3-chlorophenyl)-3-(trifluoromethyl)-1H-pyrazol-5-yl)methyl)-3-(pyridin-2-yl)urea]
89% | AG |  | CC(C)(C)c1cc(CNC(=O)Cc2cccnc2)n(-c2cccc(Cl)c2)n1 [Example 6, N-((3-tert-butyl-1-(3-chlorophenyl)-1H-pyrazol-5-yl)methyl)-2-(pyridin-3-yl)acetamide]
51% |  |  | O=C(Cc1cccnc1)NCc1cc(C(F)(F)F)nn1-c1cccc(Cl)c1 [Example 7, N-((1-(3-chlorophenyl)-3-(trifluoromethyl)-1H-pyrazol-5-yl)methyl)-2-(pyridin-3-yl)acetamide]
 |  | 13 nM | CC(C(=O)NCc1cc(C(F)(F)F)nn1-c1cccc(Cl)c1)c1cccnc1 (stereo not drawn) [Example 8, N-((1-(3-chlorophenyl)-3-(trifluoromethyl)-1H-pyrazol-5-yl)methyl)-2-(pyridin-3-yl)propanamide]
72% | AG |  | O=C(NCc1cc(C(F)(F)F)nn1-c1cccc(Cl)c1)Nc1cccnc1 [Example 9, 1-((1-(3-chlorophenyl)-3-(trifluoromethyl)-1H-pyrazol-5-yl)methyl)-3-(pyridin-3-yl)urea]
90% | AG |  | CC(C)(C)c1cc(CNC(=O)Cc2ccncc2)n(-c2cccc(Cl)c2)n1 [Example 10, N-((3-tert-butyl-1-(3-chlorophenyl)-1H-pyrazol-5-yl)methyl)-2-(pyridin-4-yl)acetamide]
79% | AG |  | O=C(Cc1ccncc1)NCc1cc(C(F)(F)F)nn1-c1cccc(Cl)c1 [Example 11, N-((1-(3-chlorophenyl)-3-(trifluoromethyl)-1H-pyrazol-5-yl)methyl)-2-(pyridin-4-yl)acetamide]
85% | AG |  | O=C(NCc1cc(C(F)(F)F)nn1-c1cccc(Cl)c1)Nc1ccncc1 [Example 12, 1-((1-(3-chlorophenyl)-3-(trifluoromethyl)-1H-pyrazol-5-yl)methyl)-3-(pyridin-4-yl)urea]
30% |  |  | O=C(Cc1ccncn1)NCc1cc(C(F)(F)F)nn1-c1cccc(Cl)c1 [Example 13, N-((1-(3-chlorophenyl)-3-(trifluoromethyl)-1H-pyrazol-5-yl)methyl)-2-(pyrimidin-4-yl)acetamide]
 | pAG |  | CC(C)(C)c1cc(CNC(=O)Cc2cnccn2)n(-c2cccc(Cl)c2)n1 [Example 14, 1N-((3-tert-butyl-1-(3-chlorophenyl)-1H-pyrazol-5-yl)methyl)-2-(pyrazin-2-yl)acetamide]
 | AG |  | O=C(NCc1cc(C(F)(F)F)nn1-c1cccc(Cl)c1)Nc1ccnnc1 [Example 15, 1-((1-(3-chlorophenyl)-3-(trifluoromethyl)-1H-pyrazol-5-yl)methyl)-3-(pyridazin-4-yl)urea]
